Measurements reported in publication PMC8989696, “Characterization of furathiocarb metabolism in in-vitro human liver microsomes and recombinant cytochrome P450 enzymes” (Toxicology Reports, 2022).

Legend:
[1] = biological target: T1, CYP2B6 (Homo sapiens, UniProt P20813); test: biochemical; type: in vitro ADME; set-up: from tissue; host or cells: pooled human liver microsomes (n = 10 donors)
T1 sequence (P20813 1-491): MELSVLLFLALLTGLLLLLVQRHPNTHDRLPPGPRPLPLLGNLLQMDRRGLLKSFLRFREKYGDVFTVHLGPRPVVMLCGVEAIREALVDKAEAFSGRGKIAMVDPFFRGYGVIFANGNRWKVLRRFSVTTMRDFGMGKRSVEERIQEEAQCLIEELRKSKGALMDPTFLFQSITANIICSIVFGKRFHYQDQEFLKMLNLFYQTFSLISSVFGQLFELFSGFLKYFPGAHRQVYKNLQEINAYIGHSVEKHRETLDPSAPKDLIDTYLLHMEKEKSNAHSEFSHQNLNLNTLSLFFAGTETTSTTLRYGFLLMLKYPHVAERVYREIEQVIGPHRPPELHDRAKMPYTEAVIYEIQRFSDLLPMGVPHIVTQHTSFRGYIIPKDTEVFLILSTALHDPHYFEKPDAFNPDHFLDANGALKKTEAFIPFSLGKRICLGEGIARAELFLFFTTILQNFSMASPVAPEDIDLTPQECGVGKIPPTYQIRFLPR
Procedure: (§1) N-in-one (“cocktail”) assay for measuring major CYP activities simultaneously, [55], [56] was employed to investigate human CYP-furathiocarb inhibitory interactions in pooled human hepatic microsomes. Furathiocarb (ﬁnal concentrations in the incubation mixture were 1, 5, 25, 50, and 100 µM) was added to the incubation mixture. The N-in-one was used earlier for the study of pesticide interactions and the details of the incubations with furathiocarb are described in Supplementary materials.
(§2) The kinetic parameters Vmax and Km were calculated by nonlinear regression. Bivariate linear Pearson’s correlation coefﬁcients (r2) were calculated between metabolite formations and model activities in the livers. GraphPad Prism 9 Software (Inc., San Diego, CA) Prism 9.0.0 (San Diego, CA) was used for kinetic parameters and correlation coefﬁcients analysis. The IC50 values were determined by linear regression analysis using OriginPro 2020 (MicroCal Software, Inc., Northampton, MA.
(§3) N-in-one assay was performed to investigate human CYP-furathiocarb inhibitory interactions. Furathiocarb (ﬁnal concentrations in the incubation mixture were 1, 5, 25, 50, and 100 µM) was added to the incubation mixture.
(§4) The N-in-one assay, analytical method and authentic standards have been described previously (Abass and Pelkonen 2013; Tolonen et al. 2007; Turpeinen et al. 2005). […]

[2] = test system: UDP-glucuronosyl transferase (UGT); test: Incubation with human hepatic homogenate fortified with UDP-glucuronic acid (phase II metabolites); type: in vitro ADME; conditions: data not illustrated
[3] = 7 cases of acute fatalities, cited from earlier work
[4] = biological target: T2, CYP2C19 (Homo sapiens, UniProt P33261); test: biochemical; type: in vitro ADME
T2 construct: from tissue; host or cells: pooled human liver microsomes (n = 10 donors)
Procedure: as §1, §2, §3, §4

[5] = biological target: T3, CYP1A2 (Homo sapiens, UniProt P05177); test: biochemical; type: in vitro ADME
T3 construct: from tissue; host or cells: pooled human liver microsomes (n = 10 donors)
T3 sequence (P05177 1-516): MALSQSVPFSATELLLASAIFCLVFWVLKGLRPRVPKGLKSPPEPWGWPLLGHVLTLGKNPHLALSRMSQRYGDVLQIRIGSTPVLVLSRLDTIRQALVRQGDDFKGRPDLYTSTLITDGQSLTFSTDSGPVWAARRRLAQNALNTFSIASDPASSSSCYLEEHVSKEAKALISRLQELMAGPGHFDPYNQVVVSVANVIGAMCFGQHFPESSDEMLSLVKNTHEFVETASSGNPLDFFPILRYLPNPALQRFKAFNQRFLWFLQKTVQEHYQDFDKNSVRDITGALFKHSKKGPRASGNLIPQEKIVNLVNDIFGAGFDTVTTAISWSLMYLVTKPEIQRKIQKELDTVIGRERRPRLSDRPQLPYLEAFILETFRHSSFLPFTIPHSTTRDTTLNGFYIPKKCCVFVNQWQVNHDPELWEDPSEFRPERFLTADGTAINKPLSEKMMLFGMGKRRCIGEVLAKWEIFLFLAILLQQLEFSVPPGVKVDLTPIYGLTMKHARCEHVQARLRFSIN
Procedure: as §1, §2, §3, §4

[6] = biological target: T4, CYP2C9 (Homo sapiens, UniProt P11712); test: N-in-one CYP inhibition assay, pooled human hepatic microsomes, CYP2C9 (OH-TOL); type: in vitro ADME
T4 construct: from tissue; host or cells: pooled human liver microsomes (n = 10 donors)
Procedure: as §1, §2, §3, §4

T4 sequence (P11712 whole entry): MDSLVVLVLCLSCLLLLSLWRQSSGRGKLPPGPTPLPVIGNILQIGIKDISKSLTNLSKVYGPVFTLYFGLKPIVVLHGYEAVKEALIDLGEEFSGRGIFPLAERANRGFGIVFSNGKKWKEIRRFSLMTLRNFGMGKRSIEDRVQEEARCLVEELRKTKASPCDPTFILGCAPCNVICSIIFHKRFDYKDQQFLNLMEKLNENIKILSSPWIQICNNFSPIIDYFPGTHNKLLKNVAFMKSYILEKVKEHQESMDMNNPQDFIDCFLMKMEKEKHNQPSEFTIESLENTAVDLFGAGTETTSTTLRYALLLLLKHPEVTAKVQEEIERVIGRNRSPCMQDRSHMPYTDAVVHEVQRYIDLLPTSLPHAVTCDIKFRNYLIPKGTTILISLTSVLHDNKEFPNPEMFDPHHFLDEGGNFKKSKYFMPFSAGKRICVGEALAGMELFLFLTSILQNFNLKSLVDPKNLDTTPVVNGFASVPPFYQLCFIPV
T2 sequence (P33261 whole entry): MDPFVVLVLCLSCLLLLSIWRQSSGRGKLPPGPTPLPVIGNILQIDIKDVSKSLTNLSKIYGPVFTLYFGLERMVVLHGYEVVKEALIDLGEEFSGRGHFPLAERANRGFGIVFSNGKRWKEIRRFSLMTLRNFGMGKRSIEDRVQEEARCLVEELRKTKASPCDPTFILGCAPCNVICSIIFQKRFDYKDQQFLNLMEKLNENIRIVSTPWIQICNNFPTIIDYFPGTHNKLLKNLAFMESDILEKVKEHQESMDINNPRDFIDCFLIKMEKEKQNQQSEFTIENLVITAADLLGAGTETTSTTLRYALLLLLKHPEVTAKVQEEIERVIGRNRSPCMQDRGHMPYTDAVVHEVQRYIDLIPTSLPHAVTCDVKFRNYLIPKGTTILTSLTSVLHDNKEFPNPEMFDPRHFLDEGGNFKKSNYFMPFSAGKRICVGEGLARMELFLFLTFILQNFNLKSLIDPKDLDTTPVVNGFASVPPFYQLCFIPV

SMILES: CCCCOC(=O)N(C)SN(C)C(=O)Oc1cccc2c1OC(C)(C)C2 [furathiocarb, Furathiocarb]
- IC50 [1]: 16.5 to 18.5 µM
- Phase II metabolites [2]: no phase II metabolites were detected
- Concentrations in the blood (average) ([3]; n = 7): 3600 ng/mL
- Concentrations in the blood (range) [3]: 100 to 21600 ng/mL
- IC50 [4]: 16.5 to 18.5 µM
- IC50 [5]: 16.5 to 18.5 µM
- IC50 [6]: 16.5 to 18.5 µM
